Patent US5132304A, “Benzothiazine derivatives and their applications as medicinal products or as synthesis intermediates for medicinal products” (Laboratorios Del Dr. Esteve, S. A., priority 1989, dated 1992)

Test system: carrageenan-induced oedema in Wistar rats
Test: Inhibition of carrageenan-induced oedema in Wistar rats 3 hours after oral administration
Format: in vivo
Conditions: p.o.; for Oedema inhibition: N=10, 3 hours after administration; for ED50: Rattus norvegicus, calculated from results 3 hours after oral administration, 2 hours after carrageenan
Method: (Inhibition of carrageenan-induced oedema)
The method followed was that described by Winter et al. (Proc. Soc. Exp. Biol. Med. […]; 111; 544-547).
Inhibition of carrageenan-induced oedema in Wistar rats 3 hours after administration of the product: […]

Row | Compound | Oedema inhibition (2.5 mg/kg) [%] | Oedema inhibition (5 mg/kg) [%] | Oedema inhibition (10 mg/kg) [%] | Oedema inhibition (40 mg/kg) [%] | ED50 [mg/kg] | Oedema inhibition (12.5 mg/kg) [%] | Oedema inhibition (25 mg/kg) [%]
1 | CCOC(=O)OC1=C(C(=O)N(C(=O)OCC)c2ccccn2)N(C)S(=O)(=O)c2ccccc21 [Example 1, N-ethoxycarbonyl-N-(2-pyridyl)-4-ethoxy-carbonyloxy-2-methyl-2H-1,2-benzothiazine-3-carboxamide 1,1-dioxide] | 33.8 | 54.3 | 63.8 | 65.5 | 5.6 | – | –
2 | CCCCC1C(=O)N(c2ccccc2)N(c2ccccc2)C1=O [Phenylbutazone, phenylbutazone, reference compound] | – | – | – | – | 19.6 | 46.6 | 52.1
